How the values were obtained:
Type in all cases: cell-based
[1] = test system: OVCAR4 (human ovarian cancer cell line); experiment: RT-CES system cell proliferation/cytotoxicity IC50, OVCAR4; conditions: OVCAR-4, time point of maximum inhibition
Text: The RT-CES system comprises three components, an electronic sensor analyzer, a device station and 16× or 96× microtiter plate devices. Microelectrode sensor array was fabricated on glass slides with lithographical microfabrication methods and the electrode-containing slides are assembled to plastic trays to form electrode-containing wells. Each 16× (or 96×) microtiter plate device used in RT-CES system comprises up to 16 (or 96) such electrode-containing wells. The device station receives the 16× or 96× microtiter plate devices and is capable of electronically switching any one of the wells to the sensor analyzer for impedance measurement. In operation, the devices with cells cultured in the wells are placed into a device station that is located inside an incubator. Electrical cables connect the device station to the sensor analyzer. Under the RT-CES software control, the sensor analyzer can automatically select wells to be measured and continuously conduct impedance measurements. The impedance data from the analyzer is transferred to a computer, analyzed and processed by the integrated software.
To quantify cell status based on the measured cell-electrode impedance, a parameter termed Cell Index is derived, according to
[formula] where Rb(f) and Rcell(f) are the frequency dependent electrode resistances (a component of impedance) without cells or with cell present, respectively. N is the number of the frequency points at which the impedance is measured. Thus, Cell Index is a quantitative measure of the status of the cells in an electrode-containing well. Under the same physiological conditions, more cells attached on to the electrodes leads to larger Rcell(f) value, leading to a larger value for Cell Index. Furthermore, for the same number of cells present in the well, a change in the cell status such as morphology will lead to a change in the Cell Index. For example, an increase in cell adhesion or cell spreading leads to larger cell-electrode contact area which will lead to an increase in Rcell(f) and thus a larger value for Cell Index. The Cell Index may also be calculated using a formula different from the one described here. Other methods for calculating the Cell Index based on impedance measurement can be found in PCT application number PCT/US04/37696, fined on Nov. 12, 2004, PCT application number PCT/US05/04481, filed on Feb. 9, 2005, U.S. patent application Ser. No. 10/987,732, filed on Nov. 12, 2004, and U.S. patent application Ser. No. 11/055,639, filed on Feb. 9, 2005.
OVCAR4 cells (human ovarian cancer cells) were seeded into wells of 16× or 96× microtiter plate devices (electronic plates, i.e., the plates comprise microelectrode sensor arrays in the wells of the plate) with an initial seeding density of 10,000 cells per well and were pre-incubated in incubator under standard cell culture conditions for about 27 hrs. Dibenzyl trisulfide solution in DMSO was added into wells following the incubation period. The cell status was monitored prior to and after the compound addition using RT-CES system. The cell indexes of different wells were between 1.4 and 1.7 just before the compound addition. […] The cell index was normalized against the cell index values at a time point just after compound addition (about 28 hrs after cell seeding).
For the assay performed on the RT-CES system, the cells were seeded into the 16× or 96× microtiter plate devices (electronic plates, i.e., the plates comprise microelectrode sensor arrays in the wells of the plate) at the seeding density ranging from 5000 cells/well to 15,000 cells/well. The cells were incubated at 5% CO2 and 37° C. for overnight till the cell indices reached the growth phase where the cell index was between 0.8 and 1.2. Serially diluted compounds were then added to the cells followed by dynamic monitoring of the effect of the compounds on the cell proliferation and cytotoxicity. […]

[2] = test system: H460 (human non small cell lung cancer cell line); experiment: RT-CES system cell proliferation/cytotoxicity, H460; conditions: NCI-H460, time point of maximum inhibition
Description: In operation, the devices with cells cultured in the wells are placed into a device station that is located inside an incubator. […] Under the RT-CES software control, the sensor analyzer can automatically select wells to be measured and continuously conduct impedance measurements. The impedance data from the analyzer is transferred to a computer, analyzed and processed by the integrated software.
H460 cells (human lung cancer cells) were seeded into wells of 16× or 96× microtiter plate devices (electronic plates, i.e., the plates comprise microelectrode sensor arrays in the wells of the plate) with an initial seeding density of 8000 cells per well and were pre-incubated in incubator under standard cell culture conditions for about 22 hrs. […] The cell status was monitored prior to and after the compound addition using RT-CES system. […] The cell index was normalized against the cell index values at a time point just after compound addition (about 23 hrs after cell seeding).
For the assay performed on the RT-CES system, the cells were seeded into the 16× or 96× microtiter plate devices (electronic plates, i.e., the plates comprise microelectrode sensor arrays in the wells of the plate) at the seeding density ranging from 5000 cells/well to 15,000 cells/well. The cells were incubated at 5% CO2 and 37° C. for overnight till the cell indices reached the growth phase where the cell index was between 0.8 and 1.2. Serially diluted compounds were then added to the cells followed by dynamic monitoring of the effect of the compounds on the cell proliferation and cytotoxicity. The time-dependent IC50 values for each derivative were calculated based the dose responses of cell index value at different time points after compound treatment.

[3] = test system: OVCAR4 (human ovarian cancer cell line); experiment: MTT assay IC50 (48 h), OVCAR4; conditions: OVCAR-4, OVCAR4, 48 hours
Description: (§1) In another assay format, a test compound is assayed for its cytotoxicity and/or cytostatic effect on certain cancer cell types, using endpoint assay methods. Cells in the NCI cancer cell panel may be used. Cells after a pre-incubation for certain length of time (for example, 8 hrs or 24 hrs) are incubated with a test compound at serially-diluted concentrations (for example, five 10-fold dilutions) for 24 hrs and/or 48 hrs, and/or other specific length of time. The dose dependent cytotoxicity and/or cytostatic effects of test compounds can then be tested and evaluated using the 3-(4,5-dimethylthiazol-2-yl)-2,5-diphenyltetrazolium bromide (MTT) assay method, as described by, for example, Boyd (In Principle of Practice of Oncology, Devita, J. T., Hellman, S. and Rosenberg S. A. (Eds), 1989, Vol, 3, PPO Update, No. 10).
(§2) The anticancer potency of DBTS and its derivatives were tested in 8 different types of human cancer cell lines using the RT-CES system and MTT assay. The 8 cancer cell lines were HT1080 (the human fibrosarcoma cell line), H460 (human non small cell lung cancer cell line), OVCAR4 (the human ovarian cancer cell line), MCF7 (human breast cancer cell line) MDA-MB231 (M231, the human breast cancer cell line) A2780 (the human […] cancer cell line) Jurkat (the human T cell leukemia cell line). The test DBTS derivatives include ACEA100107, ACEA100108, ACEA100109, ACEA100111, ACEA100115, ACEA100116, ACEA100117, ACEA100118, ACEA100119, and ACEA100120.
(§3) For the MTT assay, the cells were seeded into the regular 96× well plates at the cell seeding density ranging from 5000 cells/well to 15,000 cells/well. The cells were incubated at 5% CO2 and 37° C. for overnight. The derivatives were serially diluted and added to the cells. The treatment was terminated after 48 hours of incubation by adding MTT staining reagent. After 4 hours, the staining was stopped by the stop buffer and then the calorimetric measurement was carried out on a microtiter plate reader at dual wave length, 650 nm and 550 nm.

[4] = test system: A2780 cells; experiment: MTT assay IC50 (48 h), A2780; conditions: Homo sapiens; A2780, 48 hours
Description: as §1, §2, §3

[5] = test system: Jurkat (human T cell leukemia cell line); experiment: MTT assay IC50 (48 h), Jurkat
Description: as §1, §2, §3

[6] = test system: H460 (human non small cell lung cancer cell line); experiment: MTT assay IC50 (48 h), H460; conditions: NCI-H460, H460, 48 hours
Description: as §1, §2, §3

Row | SMILES | IC50 [3] [µM] | IC50 [4] [µM] | IC50 [5] [µM] | IC50 [6] [µM] | IC50 [1] [µM] | IC50 [2] [µM]
1 | Fc1ccc(CSSSCc2ccc(F)cc2)cc1 [ACEA100108, Di(p-fluorobenzyl)trisulfide] | > 50 | 4.7 | 0.35 | 10.2 | 2 | 9.2
2 | Clc1ccccc1CSSSCc1ccccc1Cl [ACEA100115, Di(o-chlorobenzyl)trisulfide] | > 50 | 1.5 | 0.51 | 11.8 | 0.5 | 23.2
3 | Cc1cccc(CSSSCc2cccc(C)c2)c1 [ACEA100116, di(m-methylbenzyl)trisulfide] | > 50 | 0.8 | 0.3 | 5.4 | 0.6 | 12.5
4 | c1ccc(CSSSCc2ccccc2)cc1 [DBTS, Dibenzyl trisulfide] | > 50 | 1.2 | 0.35 | 14.2 | 1.75 | 11.1

Further lines, with some results ahead:

Row | IC50 [3] [µM] | IC50 [4] [µM] | IC50 [5] [µM] | IC50 [6] [µM] | SMILES | IC50 [1] [µM] | IC50 [2] [µM]
5 | > 50 | 11.7 | 8 | > 50 | FC(F)(F)c1cccc(CSSSCc2cccc(C(F)(F)F)c2)c1 [ACEA100117, Di(m-trifluoromethylbenzyl)trisulfide] | 33.5 | > 50
6 | > 50 | 0.8 | 0.5 | 7.95 | Clc1ccc(CSSSCc2ccc(Cl)cc2)cc1 [ACEA100118, Di(p-chlorobenzyl)trisulfide] | 2.25 | 9.6

From patent US8334316B2, “Substituted organosulfur compounds and methods of using thereof” (ACEA Biosciences, Inc., priority 2004, dated 2012)
